From patent US7446199B2, “Compositions useful as inhibitors of protein kinases” (Vertex Pharmaceuticals Incorporated, priority 2003, dated 2008)

Legend:
Type in all cases: biochemical
[1] = biological target: KDR (Homo sapiens, UniProt P35968); assay: KDR enzyme assay, coupled enzyme assay; details: 300 μM ATP, 10 μM poly E4Y, 30 nM KDR, 37° C.
Procedure: Compounds were screened for their ability to inhibit KDR using a standard coupled enzyme assay (Fox et al., Protein Sci., (1998) 7, 2249). Assays were carried out in a mixture of 200 mM HEPES 7.5, 10 mM MgCl2, 25 mM NaCl, 1 mM DTT and 1.5% DMSO. Final substrate concentrations in the assay were 300 μM ATP (Sigma Chemicals) and 10 μM poly E4Y (Sigma). Assays were carried out at 37° C. and 30 nM KDR. Final concentrations of the components of the coupled enzyme system were 2.5 mM phosphoenolpyruvate, 200 μM NADH, 30 μg/ML pyruvate kinase and 10 μg/ml lactate dehydrogenase.
An assay stock buffer solution was prepared containing all of the reagents listed above, with the exception of ATP and the test compound of interest. 177 μl of the stock solution was placed in a 96 well plate followed by addition of 3 μl of 2 mM DMSO stock containing the test compound (final compound concentration 30 μM). The plate was preincubated for about 10 minutes at 37° C. and the reaction initiated by addition of 20 μl of ATP (final concentration 300 μM). Rates of reaction were obtained using a Molecular Devices plate reader (Sunnyvale, Calif.) over a 5 minute read time at 37° C.

[2] = biological target: SYK (Homo sapiens, UniProt P43405); assay: SYK enzyme assay, coupled enzyme assay; details: 200 μM ATP, 4 μM poly Gly-Tyr peptide, 30° C.
Procedure: Compounds were screened for their ability to inhibit SYK using a standard coupled enzyme assay (Fox et al., Protein Sci. 1998, 7, 2249). Reactions were carried out in 100 mM HEPES (pH 7.5), 10 mM MgCl2, 25 mM NaCl, 1 mM DTT and 1.5% DMSO. Final substrate concentrations in the assay were 200 μM ATP (Sigma chemical Co.) and 4 μM poly Gly-Tyr peptide (Sigma Chemical Co.). Assays were carried out at 30° C. and 200 nM SYK. Final concentrations of the components of the coupled enzyme system were 2.5 mM phosphoenolpyruvate, 300 μM NADH, 30 μg/ml pyruvate kinase and 10 μg/ml lactate dehydrogenase.
An assay stock buffer solution was prepared containing all of the reagents listed above, with the exception of SYK, DTT, and the test compound of interest of the present invention. 56 μl of the test reaction was placed in a 96 well plate followed by the addition of 1 μl of 2 mM DMSO stock containing the test compound of the present invnetion (final compound concentration 30 μM). The plate was pre-incubated for ˜10 minutes at 30° C. and the reaction initiated by the addition of 10 μl of enzyme (final concentration 25 nM). Rates of reaction were obtained using a BioRad Ultramark plate reader (Hercules, Calif.) over a 5 minute read time at 30° C., and Ki values for the compounds of the present invention were determined according to standard methods.

[3] = biological target: c-Met (Homo sapiens, UniProt P08581); assay: Ki determination for the inhibition of c-Met, coupled enzyme system; details: 200 μM ATP, 10 μM polyGluTyr, 80 nM c-Met, 30° C.
Sequence of c-Met (P08581 25-1390): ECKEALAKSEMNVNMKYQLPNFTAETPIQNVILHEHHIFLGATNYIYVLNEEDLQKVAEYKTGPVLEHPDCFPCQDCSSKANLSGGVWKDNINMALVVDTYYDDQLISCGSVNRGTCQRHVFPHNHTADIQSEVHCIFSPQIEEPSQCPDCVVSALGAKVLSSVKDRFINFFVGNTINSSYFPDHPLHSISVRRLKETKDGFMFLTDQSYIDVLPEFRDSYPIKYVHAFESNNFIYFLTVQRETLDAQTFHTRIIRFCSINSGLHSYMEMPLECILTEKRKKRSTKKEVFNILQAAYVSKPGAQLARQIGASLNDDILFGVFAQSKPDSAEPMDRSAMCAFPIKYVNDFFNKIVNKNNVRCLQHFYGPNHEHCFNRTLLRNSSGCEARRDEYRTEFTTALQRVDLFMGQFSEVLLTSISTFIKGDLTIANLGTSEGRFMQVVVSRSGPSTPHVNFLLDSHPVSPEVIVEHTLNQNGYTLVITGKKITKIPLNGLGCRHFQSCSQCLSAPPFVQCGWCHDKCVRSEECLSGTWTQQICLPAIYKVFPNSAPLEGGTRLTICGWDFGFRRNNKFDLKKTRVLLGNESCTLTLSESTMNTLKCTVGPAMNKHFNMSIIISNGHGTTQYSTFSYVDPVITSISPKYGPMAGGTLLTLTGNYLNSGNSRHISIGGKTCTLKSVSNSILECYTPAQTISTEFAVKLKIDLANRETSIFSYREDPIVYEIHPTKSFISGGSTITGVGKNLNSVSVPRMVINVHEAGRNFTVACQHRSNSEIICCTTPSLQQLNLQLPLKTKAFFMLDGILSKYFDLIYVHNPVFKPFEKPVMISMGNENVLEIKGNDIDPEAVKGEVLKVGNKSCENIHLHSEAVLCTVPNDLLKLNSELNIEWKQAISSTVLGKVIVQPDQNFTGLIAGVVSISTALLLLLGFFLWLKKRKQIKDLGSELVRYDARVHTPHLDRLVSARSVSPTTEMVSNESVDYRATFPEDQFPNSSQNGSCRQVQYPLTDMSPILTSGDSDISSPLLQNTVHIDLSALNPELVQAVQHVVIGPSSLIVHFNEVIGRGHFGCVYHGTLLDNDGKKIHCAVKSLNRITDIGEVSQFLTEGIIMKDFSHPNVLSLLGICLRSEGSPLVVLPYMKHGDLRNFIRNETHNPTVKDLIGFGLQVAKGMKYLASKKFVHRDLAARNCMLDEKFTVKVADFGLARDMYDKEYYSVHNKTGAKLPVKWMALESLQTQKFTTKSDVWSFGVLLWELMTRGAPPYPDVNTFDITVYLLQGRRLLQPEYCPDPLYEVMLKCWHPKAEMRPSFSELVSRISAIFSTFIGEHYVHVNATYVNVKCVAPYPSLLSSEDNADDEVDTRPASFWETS
How it was run: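 Coupled pyruvate kinase/lactate dehydrogenase NADH assay with 80 nM c-Met, 200 μM ATP, 10 μM polyGluTyr in pH 7.5 HEPES, 1.5% DMSO at 30° C. Compound (0.006–12.5 μM final, 12-point) preincubated 10 min; ATP started reaction, rates read over 10 min; Ki derived from rate versus inhibitor concentration.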

Sequence of KDR (P35968 20-1356): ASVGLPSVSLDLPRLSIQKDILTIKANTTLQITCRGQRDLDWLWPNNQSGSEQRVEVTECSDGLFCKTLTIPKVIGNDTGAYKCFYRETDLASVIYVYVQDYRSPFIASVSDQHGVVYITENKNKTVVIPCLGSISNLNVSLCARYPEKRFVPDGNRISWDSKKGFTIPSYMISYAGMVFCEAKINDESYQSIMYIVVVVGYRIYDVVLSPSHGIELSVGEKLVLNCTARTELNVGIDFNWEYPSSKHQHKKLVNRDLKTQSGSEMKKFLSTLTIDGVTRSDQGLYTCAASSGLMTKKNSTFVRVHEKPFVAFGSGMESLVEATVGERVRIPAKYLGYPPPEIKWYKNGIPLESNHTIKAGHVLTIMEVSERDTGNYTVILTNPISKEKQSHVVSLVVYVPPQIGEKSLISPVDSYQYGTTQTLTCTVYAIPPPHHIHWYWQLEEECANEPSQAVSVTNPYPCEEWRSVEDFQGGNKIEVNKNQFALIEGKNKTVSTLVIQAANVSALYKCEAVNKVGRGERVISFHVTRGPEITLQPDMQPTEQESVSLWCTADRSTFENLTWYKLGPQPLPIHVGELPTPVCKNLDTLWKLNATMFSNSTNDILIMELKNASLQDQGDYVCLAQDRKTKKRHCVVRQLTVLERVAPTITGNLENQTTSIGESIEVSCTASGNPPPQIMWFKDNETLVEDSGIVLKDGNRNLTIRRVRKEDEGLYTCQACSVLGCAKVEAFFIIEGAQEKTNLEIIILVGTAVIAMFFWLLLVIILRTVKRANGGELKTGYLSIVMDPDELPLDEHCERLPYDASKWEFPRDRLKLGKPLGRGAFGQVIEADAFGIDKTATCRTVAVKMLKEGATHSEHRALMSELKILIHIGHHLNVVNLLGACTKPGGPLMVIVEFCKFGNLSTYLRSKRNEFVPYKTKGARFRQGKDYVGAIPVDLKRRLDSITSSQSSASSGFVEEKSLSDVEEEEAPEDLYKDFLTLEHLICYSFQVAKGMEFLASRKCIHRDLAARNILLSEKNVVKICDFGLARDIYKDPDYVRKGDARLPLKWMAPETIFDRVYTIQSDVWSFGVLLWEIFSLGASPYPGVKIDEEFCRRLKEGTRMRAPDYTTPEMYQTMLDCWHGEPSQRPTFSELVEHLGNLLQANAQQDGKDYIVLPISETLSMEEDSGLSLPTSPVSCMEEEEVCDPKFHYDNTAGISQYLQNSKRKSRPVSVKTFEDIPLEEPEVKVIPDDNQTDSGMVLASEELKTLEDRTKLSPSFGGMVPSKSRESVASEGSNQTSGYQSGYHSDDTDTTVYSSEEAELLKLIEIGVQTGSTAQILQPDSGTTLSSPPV

Row | SMILES | Ki [1] | Ki [2] | Ki [3]
1 | Fc1cccc(-c2cnoc2-c2c[nH]c3ncccc23)c1F [Compound 1, 3-[4-(2,3-Difluoro-phenyl)-isoxazol-5-yl]-1H-pyrrolo[2,3-b]pyridine] | 1000 to 12500 nM | 200 to 1000 nM | < 200 nM
2 | Fc1cccc(-c2cnoc2-c2c[nH]c3ncc(Br)cc23)c1F [Compound 37, 5-Bromo-3-[4-(2,3-difluoro-phenyl)-isoxazol-5-yl]-1H-pyrrolo[2,3-b]pyridine] | 200 to 1000 nM | 1000 to 12500 nM | < 200 nM
3 | COc1cnc2[nH]cc(-c3oncc3-c3cccc(F)c3F)c2c1 [Compound 38, 3-[4-(2,3-Difluoro-phenyl)-isoxazol-5-yl]-5-methoxy-1H-pyrrolo[2,3-b]pyridine] | 200 to 1000 nM | 1000 to 12500 nM | < 200 nM
4 | Fc1c(Cl)cccc1-c1cnoc1-c1c[nH]c2ncccc12 [Compound 42, 3-[4-(3-Chloro-2-fluoro-phenyl)-isoxazol-5-yl]-1H-pyrrolo[2,3-b]pyridine] | 200 to 1000 nM | 1000 to 12500 nM | < 200 nM
5 | Oc1cnc2[nH]cc(-c3oncc3-c3cccc(F)c3F)c2c1 [Compound 43, 3-[4-(2,3-Difluoro-phenyl)-isoxazol-5-yl]-1H-pyrrolo[2,3-b]pyridin-5-ol] | 200 to 1000 nM | 200 to 1000 nM | < 200 nM
6 | CN(C)c1cccc(-c2cnc3[nH]cc(-c4oncc4-c4cccc(F)c4F)c3c2)c1 [Compound 61, (3-{3-[4-(2,3-Difluoro-phenyl)-isoxazol-5-yl]-1H-pyrrolo[2,3-b]pyridin-5-yl}-phenyl)-dimethyl-amine] | 200 to 1000 nM | 1000 to 12500 nM | < 200 nM
7 | CC(=O)Nc1ccc(-c2cnc3[nH]cc(-c4oncc4-c4cccc(F)c4F)c3c2)cc1 [Compound 95, N-(4-{3-[4-(2,3-Difluoro-phenyl)-isoxazol-5-yl]-1H-pyrrolo[2,3-b]pyridin-5-yl}-phenyl)-acetamide] | 200 to 1000 nM | – | < 200 nM
8 | COc1cncc(-c2cnc3[nH]cc(-c4oncc4-c4cccc(F)c4F)c3c2)c1 [Compound 96, 3-[4-(2,3-Difluoro-phenyl)-isoxazol-5-yl]-5-(5-methoxy-pyridin-3-yl)-1H-pyrrolo[2,3-b]pyridine] | < 200 nM | – | < 200 nM
9 | CS(=O)(=O)n1ccc2cc(-c3cnc4[nH]cc(-c5oncc5-c5cccc(F)c5F)c4c3)cnc21 [Compound 97, 3′-[4-(2,3-Difluoro-phenyl)-isoxazol-5-yl]-1-methanesulfonyl-1H, 1′H-[5,5′]bi[pyrrolo[2,3-b]pyridinyl]] | < 200 nM | – | < 200 nM
10 | CNc1ccc2c(-c3oncc3-c3cccc(F)c3F)c[nH]c2n1 [Compound 102, {3-[4-(2,3-Difluoro-phenyl)-isoxazol-5-yl]-1H-pyrrolo[2,3-b]pyridin-6-yl}-methyl-amine] | 1000 to 12500 nM | – | < 200 nM
11 | COC(=O)c1cnc2[nH]cc(-c3oncc3-c3cccc(F)c3F)c2c1 [Compound 105, 3-[4-(2,3-Difluoro-phenyl)-isoxazol-5-yl]-1H-pyrrolo[2,3-b]pyridine-5-carboxylic acid methyl ester] | 200 to 1000 nM | – | < 200 nM
12 | Fc1cccc(-n2cnnc2-c2c[nH]c3ncc(-c4ccc(CN5CCOCC5)cc4)cc23)c1F [Compound 109, 3-[4-(2,3-Difluoro-phenyl)-4H-[1,2,4]triazol-3-yl]-5-(4-morpholin-4-ylmethyl-phenyl)-1H-pyrrolo[2,3-b]pyridine] | 200 to 1000 nM | – | < 200 nM
13 | CN1CCN(c2ccc(-c3cnc4[nH]cc(-c5nncn5-c5cccc(F)c5F)c4c3)cc2)CC1 [Compound 110, 3-[4-(2,3-Difluoro-phenyl)-4H-[1,2,4]triazol-3-yl]-5-[4-(4-methyl-piperazin-1-yl)-phenyl]-1H-pyrrolo[2,3-b]pyridine] | 200 to 1000 nM | – | < 200 nM
14 | CN1CCN(c2ccc(-c3cnc4[nH]cc(-c5nncn5-c5cccc(F)c5F)c4c3)cn2)CC1 [Compound 112] | 200 to 1000 nM | – | < 200 nM
15 | Fc1cccc(-n2cnnc2-c2c[nH]c3ncc(-c4cccnc4)cc23)c1F [Compound 113, 3-[4-(2,3-Difluoro-phenyl)-4H-[1,2,4]triazol-3-yl]-5-pyridin-3-yl-1H-pyrrolo[2,3-b]pyridine] | 200 to 1000 nM | – | < 200 nM
16 | Fc1cccc(-n2cnnc2-c2c[nH]c3ncc(-c4ccncc4)cc23)c1F [Compound 114, 3-[4-(2,3-Difluoro-phenyl)-4H-[1,2,4]triazol-3-yl]-5-pyridin-4-yl-1H-pyrrolo[2,3-b]pyridine] | 200 to 1000 nM | – | < 200 nM
17 | Fc1cccc(-n2cnnc2-c2c[nH]c3ncc(-c4ccc(N5CCC[C@H]5CN5CCCC5)nc4)cc23)c1F [Compound 115, 3-[4-(2,3-Difluoro-phenyl)-4H-[1,2,4]triazol-3-yl]-5-[6-(2-pyrrolidin-1-ylmethyl-pyrrolidin-1-yl)-pyridin-3-yl]-1H-pyrrolo[2,3-b]pyridine] | 1000 to 12500 nM | – | < 200 nM
18 | OC1CCN(c2ccc(-c3cnc4[nH]cc(-c5nncn5-c5cccc(F)c5F)c4c3)cn2)CC1 [Compound 116, 5′-{3-[4-(2,3-Difluoro-phenyl)-4H-[1,2,4]triazol-3-yl]-1H-pyrrolo[2,3-b]pyridin-5-yl}-3,4,5,6-tetrahydro-2H-[1,2′]bi-pyridinyl-4-ol] | 200 to 1000 nM | – | < 200 nM
19 | CN1CCCN(c2ccc(-c3cnc4[nH]cc(-c5nncn5-c5cccc(F)c5F)c4c3)cn2)CC1 [Compound 117, 3-[4-(2,3-Difluoro-phenyl)-4H-[1,2,4]triazol-3-yl]-5-[6-(4-methyl-[1,4]diazepan-1-yl)-pyridin-3-yl]-1H-pyrrolo [2,3-b]-pyridine] | 200 to 1000 nM | – | < 200 nM
20 | Fc1cccc(-n2cnnc2-c2c[nH]c3ncc(-c4ccc(N5CCCC5)nc4)cc23)c1F [Compound 118, 3-[4-(2,3-Difluoro-phenyl)-4H-[1,2,4]triazol-3-yl]-5-(6-pyrrolidin-1-yl-pyridin-3-yl)-1H-pyrrolo[2,3-b]pyridine] | 200 to 1000 nM | – | < 200 nM
21 | CN(C)CCNc1ccc(-c2cnc3[nH]cc(-c4nncn4-c4cccc(F)c4F)c3c2)cn1 [Compound 119, N′-(5-{3-[4-(2,3-Difluoro-phenyl)-4H-[1,2,4]triazol-3-yl]-1H-pyrrolo[2,3-b]pyridin-5-yl}-pyridin-2-yl)-N,N-dimethyl-ethane-1,2-diamine] | 200 to 1000 nM | – | < 200 nM
22 | Fc1cccc(-c2cnoc2-c2c[nH]c3ncc(C4=CCC(NCc5ccccc5)CC4)cc23)c1F (stereo not shown) [Compound 136, Benzyl-(4-{3-[4-(2,3-difluoro-phenyl)-isoxazol-5-yl]-1H-pyrrolo[2,3-b]pyridin-5-yl}-cyclohex-3-enyl)-amine] | 200 to 1000 nM | – | < 200 nM
23 | NC1CC=C(c2cnc3[nH]cc(-c4oncc4-c4cccc(F)c4F)c3c2)CC1 (stereo not shown) [Compound 137, 4-{3-[4-(2,3-Difluoro-phenyl)-isoxazol-5-yl]-1H-pyrrolo [2,3-b]pyridin-5-yl}-cyclohex-3-enylamine] | < 200 nM | – | < 200 nM
24 | CN(C)C1CC=C(c2cnc3[nH]cc(-c4oncc4-c4cccc(F)c4F)c3c2)CC1 (stereo not shown) [Compound 138, (4-{3-[4-(2,3-Difluoro-phenyl)-isoxazol-5-yl]-1H-pyrrolo[2,3-b]pyridin-5-yl}-cyclohex-3-enyl)-dimethyl-amine] | < 200 nM | – | < 200 nM
25 | Fc1cccc(-c2cnoc2-c2c[nH]c3ncc(C4=CCC(N5CCOCC5)CC4)cc23)c1F (stereo not shown) [Compound 139, 3-[4-(2,3-Difluoro-phenyl)-isoxazol-5-yl]-5-(4-morpholin-4-yl-cyclohex-1-enyl)-1H-pyrrolo[2,3-b]pyridine] | 200 to 1000 nM | – | < 200 nM
26 | CS(=O)(=O)NC1CC=C(c2cnc3[nH]cc(-c4oncc4-c4cccc(F)c4F)c3c2)CC1 (stereo not shown) [Compound 140, N-(4-{3-[4-(2,3-Difluoro-phenyl)-isoxazol-5-yl]-1H-pyrrolo[2,3-b]pyridin-5-yl}-cyclohex-3-enyl)-methanesulfonamide] | < 200 nM | – | < 200 nM
